The values below come from patent US20250360124A1, “NOVEL RAS INHIBITORS” (KHR BIOTEC GMBH, priority 2022, published 2025).

SMILES strings stand for the structures. Where a name gives a salt, the structure may show the parent alone.

Common to all, as to format: cell-based
For one assay, the target named is T1, KRAS G12V (Homo sapiens, UniProt P01116, G12V).
T1 construct: K, N and HRAS G12V (full length) was cloned with Xho I and Bgl II to LgBit; expressed in transfected cells
In words: NanoBit assay for RAS activation (LgBiT-RAS / SmBiT-CRAF RBD). Conditions: K-RAS G12V with CRAF RBD; 2 h with inhibitor, serum free DMEM; FIG. 1. Here is the method: (§1) FIG. 1a) and 1b): NanoBit assay for RAS activation (KRAS G12V, NRAS G12V, HRAS G12V)
(§2) N-terminal LgBiT and C-terminal SmBIT construct was purchased from Promega and K, N and HRAS G12V (full length) was cloned with Xho I and Bgl II to LgBit and CRAF Ras binding domain (1-149) was cloned with EcoRI and Bgl II to SmBit. For transfections, 1 μg or 2 μg of (12 well/6 well) plasmids were transfected into cells with 0.5 mM of PEI reagent in 100 μl or 200 μl PBS. One day after transfection, cells were harvested and seeded into 96 well white plates, half area (Greiner). After an additional day the medium was changed to serum free DMEM and the cells were incubated for 2 h with inhibitors. NanoGlo assay was performed according to the manufacturer's instructions. The luminescence was measured using Tecan infinite (Tecan). DMSO-treated cells were set as 1. The results shown are mean mean±SEM from at least 3 independent experiments.

For the next assay, the target named is T2, NRAS G12V (Homo sapiens, UniProt P01111, G12V).
T2 construct: K, N and HRAS G12V (full length) was cloned with Xho I and Bgl II to LgBit; expressed in transfected cells
The description is as above. Conditions: N-RAS G12V with CRAF RBD; 2 h with inhibitor, serum free DMEM; FIG. 1. As for the experimental part:
as §1, §2

A further assay has as its target T3, HRAS G12V (Homo sapiens, UniProt P01112, G12V).
T3 construct: K, N and HRAS G12V (full length) was cloned with Xho I and Bgl II to LgBit; expressed in transfected cells
The assay is described as above. Conditions: H-RAS G12V with CRAF RBD; 2 h with inhibitor, serum free DMEM; FIG. 1. Here is the method:
as §1, §2

Another assay concerns NCI-H2122 cells. In words: Soft agar colony formation assay, MTT readout. The following applies: Homo sapiens, growth in soft agar, colonies stained with MTT, absorbance 570 nm. As for the experimental part:
(§3) FIGS. 2a) and 2b): MTT assay for cell growth
(§4) Metabolic activity was quantified using Cell Proliferation Kit I (Roche, Basel, Switzerland). Cells were seeded in 96-well cell culture plates, using 5000 cells per well for NCI-H358 cells. After treatment, 10 μl of MTT solution was added and incubated for 2 h in CO2 incubator. Then 100 μl of solubilization buffer was added to each well and incubated overnight in CO2 incubator. Cell viability, assessed by the amount of metabolized MTT, was quantified by measuring absorbance at 570 nm.
(§5) MTT assay for the growth of different tumor cell lines with RAS mutations in soft agar with Quinacrine dihydrochloride.
(§6) NCI-H358, H358, H2122, ASPC-1, HCT-116, T24 and HT1080 cells were used for the soft agar colony formation assay. After the treatment with Quinacrine dihydrochloride hydrate, the colonies were stained with MTT and the value was quantified by measuring absorbance at 570 nm after solubilization. The results represent mean±SEM from 3 independent experiments.

Another assay has as its system ASPC1 cells. In words: Soft agar colony formation assay, MTT readout. Conditions: Homo sapiens, growth in soft agar, colonies stained with MTT, absorbance 570 nm. As for the experimental part:
as §3, §4, §5, §6

In the next assay the test system is T24 cells. The assay is described as follows: Soft agar colony formation assay, MTT readout. The following applies: Homo sapiens, T-24, growth in soft agar, colonies stained with MTT, absorbance 570 nm. As for the experimental part:
as §3, §4, §5, §6

The test system of another assay is NCI-H358 cells. In words: Soft agar colony formation assay, MTT readout. Conditions: Homo sapiens, growth in soft agar, colonies stained with MTT, absorbance 570 nm. As for the experimental part:
as §3, §4, §5, §6

Another assay concerns HCT-116 cells. In words: Soft agar colony formation assay, MTT readout. The following applies: Homo sapiens, growth in soft agar, colonies stained with MTT, absorbance 570 nm. Here is the method:
as §3, §4, §5, §6

In a further assay the test system is HT1080 cells. The assay is described as follows: Soft agar colony formation assay, MTT readout. The following applies: Homo sapiens, HT-1080, growth in soft agar, colonies stained with MTT, absorbance 570 nm. As for the experimental part: as §3, §4, §5, §6
For the next assay, the system named is KRAS dependent cells. The assay is described as follows: MTT assay for cell viability in 96 well cell culture plate. Conditions: 48 h treatment, KRAS dependent cells incl. G12C/Y96D mutation, FIG. 3a. Here is the method:
FIGS. 3a) and 3b): MTT assay for cell viability in 96 well cell culture plate Cells were treated with Quinacrine dihydrochloride hydrate for 48 h and cell viability was evaluated by MTT assay. DMSO-treated cells were set as 1. The results shown are mean±SEM from 3 independent experiments.
G12C/Y96D mutation is normally seen in patients, who develop resistance to G12C inhibitor. Thus, patients, who are resistant to G12C inhibitors can still be treated with Quinacrine dihydrochloride.
Background: Tetrazolium dyes change colour on reduction, which living cells bring about.

In the next assay the test system is sNF96.2 cells. In words: MTT assay for cell viability in 96 well plate, RASOpathie model. Conditions: 48 h treatment.

T1 sequence (P01116 1-188 isoform P01116-2 G12V): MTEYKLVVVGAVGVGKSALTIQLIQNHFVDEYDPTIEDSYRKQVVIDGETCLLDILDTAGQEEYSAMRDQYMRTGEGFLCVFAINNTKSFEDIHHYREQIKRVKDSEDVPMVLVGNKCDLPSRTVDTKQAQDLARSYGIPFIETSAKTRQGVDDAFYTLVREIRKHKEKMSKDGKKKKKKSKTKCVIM
T2 sequence (P01111 whole entry G12V): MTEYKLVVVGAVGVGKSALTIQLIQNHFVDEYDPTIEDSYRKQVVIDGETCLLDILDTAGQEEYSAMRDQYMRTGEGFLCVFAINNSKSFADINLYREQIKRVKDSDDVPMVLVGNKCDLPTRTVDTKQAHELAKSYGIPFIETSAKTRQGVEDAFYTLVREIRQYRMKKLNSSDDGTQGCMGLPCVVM
T3 sequence (P01112 whole entry G12V): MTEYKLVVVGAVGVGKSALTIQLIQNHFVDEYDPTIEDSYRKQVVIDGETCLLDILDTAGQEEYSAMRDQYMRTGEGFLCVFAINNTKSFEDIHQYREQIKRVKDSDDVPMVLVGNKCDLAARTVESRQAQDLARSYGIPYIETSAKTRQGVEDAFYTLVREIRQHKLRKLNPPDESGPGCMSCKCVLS

For `CCN(CC)CCCC(C)Nc1c2ccc(Cl)cc2nc2ccc(OC)cc12` (centres unmarked) [Quinacrine dihydrochloride hydrate, 4-N-(6-chloro-2-methoxyacridin-9-yl)-1-N,1-N-diethylpentane-1,4-diamine;hydrate;dihydrochloride], the “inhibition of RAS activation (NanoBit luminescence)” value against KRAS G12V, at NRAS G12V and on HRAS G12V was “inhibits” throughout. Besides, the IC50 (commonly the midpoint of a concentration-inhibition curve) in the assay with NCI-H2122 cells came to 2.48 µM; in the assay on ASPC1 cells, 4.28 µM; with T24 cells, 4 µM; in the assay on NCI-H358 cells, 5.1 µM; with HCT-116 cells it was 5.5 µM; with HT1080 cells it was 149 µM. In the assay with sNF96.2 cells, this molecule registered an IC50 of 4.51 µM. Besides, in the assay with KRAS dependent cells, the “inhibition of cell viability” value is recorded as “inhibits KRAS dependent cells irrespective of the presence of mutation”.
